Measured values as given in ChEMBL document CHEMBL2303647, “Data associated with the publication PLoS ONE, 8(3), e57888, (2013) PMID: 23505445. Compounds: GSK PKIS; Assays: NIH NCATS”.
“Also recorded” adds a separate entry of the source.

Columns and labels:
[1] = molecular target: T1, Coelenterazine h 2-monooxygenase (Renilla reniformis, UniProt P27652)
T1 sequence (P27652 whole entry): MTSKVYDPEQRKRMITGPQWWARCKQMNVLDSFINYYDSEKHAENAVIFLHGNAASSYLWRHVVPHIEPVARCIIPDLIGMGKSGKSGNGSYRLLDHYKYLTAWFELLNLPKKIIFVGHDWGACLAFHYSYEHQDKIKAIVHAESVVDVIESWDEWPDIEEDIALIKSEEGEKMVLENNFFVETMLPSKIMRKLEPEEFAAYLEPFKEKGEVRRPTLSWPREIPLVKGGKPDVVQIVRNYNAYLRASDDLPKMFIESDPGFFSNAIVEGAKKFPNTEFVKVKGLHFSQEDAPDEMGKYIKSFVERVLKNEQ
Description: GSK_PKIS: Inhibition of Sea Pansy Luciferase (Data from PubChem: AID 652015) [NIH NCATS]

[2] = molecular target: Luciferin 4-monooxygenase (Photinus pyralis, UniProt P08659)
Chain of Luciferin 4-monooxygenase (P08659 whole entry): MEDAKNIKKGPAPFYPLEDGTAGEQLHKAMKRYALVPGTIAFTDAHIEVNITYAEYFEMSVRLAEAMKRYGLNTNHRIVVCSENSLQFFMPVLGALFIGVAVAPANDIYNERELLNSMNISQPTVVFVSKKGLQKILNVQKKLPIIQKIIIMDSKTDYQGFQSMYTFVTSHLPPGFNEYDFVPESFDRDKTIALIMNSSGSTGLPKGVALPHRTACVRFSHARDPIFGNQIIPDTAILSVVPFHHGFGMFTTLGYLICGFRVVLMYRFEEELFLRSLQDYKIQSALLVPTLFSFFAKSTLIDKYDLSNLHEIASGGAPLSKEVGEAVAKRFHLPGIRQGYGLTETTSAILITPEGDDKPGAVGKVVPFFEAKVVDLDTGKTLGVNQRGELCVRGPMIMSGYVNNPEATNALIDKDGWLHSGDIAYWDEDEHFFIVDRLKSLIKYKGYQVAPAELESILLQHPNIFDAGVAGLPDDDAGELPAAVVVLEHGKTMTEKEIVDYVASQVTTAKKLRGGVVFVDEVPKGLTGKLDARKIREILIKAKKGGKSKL
Description: GSK_PKIS: Inhibition of Firefly Luciferase (Data from PubChem: AID 652016) [NIH NCATS]

AC50 ([2]; read-out: AC50) [µM] | AC50 ([1]; read-out: AC50) [µM] | Compound | AC50 [1] | AC50 [2]
– | – | O=C(Nc1n[nH]c2nc(-c3ccco3)ccc12)C1CC1 | Phenotype: Inactive; Curve_Description: None | Phenotype: Inactive; Curve_Description: None
20.6 | – | CS(=O)(=O)Nc1ccc(-c2ccc3c(NC(=O)C4CC4)n[nH]c3c2)cc1 | Phenotype: Inactive; Curve_Description: None | –
20.6 | – | CS(=O)(=O)Nc1cccc(-c2ccc3c(NC(=O)C4CC4)n[nH]c3c2)c1 | Phenotype: Inactive; Curve_Description: None | –
– | – | NS(=O)(=O)c1ccc(-c2ccc3c(NC(=O)C4CC4)n[nH]c3c2)cc1 | Phenotype: Inactive; Curve_Description: None | Phenotype: Inactive; Curve_Description: None
– | – | N#Cc1ccc(Oc2nccc(-c3c(-c4ccc(F)cc4)ncn3C3CCNCC3)n2)cc1 | Phenotype: Inactive; Curve_Description: None | Phenotype: Inactive; Curve_Description: None
– | – | O=C1NC(=O)C(c2cccc(Cl)c2)=C1Nc1ccc(Cl)c(C(=O)O)c1 | Phenotype: Inactive; Curve_Description: None | Phenotype: Inactive; Curve_Description: None
– | 36.6 | O=C1NC(=O)C(c2cccc(Cl)c2)=C1Nc1ccc(O)c(Cl)c1 | – | Phenotype: Inactive; Curve_Description: None
– | – | O=C1NC(=O)C(c2ccc(Cl)cc2)=C1Nc1ccc(Cl)c(C(=O)O)c1 | Phenotype: Inactive; Curve_Description: None | Phenotype: Inactive; Curve_Description: None
– | – | O=C1NC(=O)C(c2ccccc2Cl)=C1Nc1cccc(O)c1 | Phenotype: Inactive; Curve_Description: None | Phenotype: Inactive; Curve_Description: None
– | – | NC(=O)Cc1ccccc1Oc1nccc(-c2c(-c3ccc(F)cc3)ncn2C2CCNCC2)n1 | Phenotype: Inactive; Curve_Description: None | Phenotype: Inactive; Curve_Description: None
– | – | Fc1ccc(-c2ncn(C3CCNCC3)c2-c2ccnc(Oc3ccc(F)c(F)c3)n2)cc1 | Phenotype: Inactive; Curve_Description: None | Phenotype: Inactive; Curve_Description: None
– | – | Cl.ON=C1CCc2cc(-c3nc(C4CCNCC4)[nH]c3-c3ccncc3)ccc21 | Phenotype: Inactive; Curve_Description: None | Phenotype: Inactive; Curve_Description: None
– | – | CN(C)CCOc1ccc(-c2cc(-c3ccc4c(c3)CCC4=NO)c(-c3ccncc3)o2)cc1.Cl | Phenotype: Inactive; Curve_Description: None | Phenotype: Inactive; Curve_Description: None
– | – | CCn1c(-c2nonc2N)nc2ccncc21 | Phenotype: Inactive; Curve_Description: None | Phenotype: Inactive; Curve_Description: None
– | – | Nc1nonc1-c1nc2cnccc2n1C1CC1 | Phenotype: Inactive; Curve_Description: None | Phenotype: Inactive; Curve_Description: None
– | – | CCn1c(-c2nonc2N)nc2c(N3CCCC3)nccc21 | Phenotype: Inactive; Curve_Description: None | Phenotype: Inactive; Curve_Description: None
– | – | Cn1c(-c2nonc2N)nc2cnccc21 | Phenotype: Inactive; Curve_Description: None | Phenotype: Inactive; Curve_Description: None
– | – | CCOc1nccc2c1nc(-c1nonc1N)n2CC | Phenotype: Inactive; Curve_Description: None | Phenotype: Inactive; Curve_Description: None
– | – | Nc1nccc(-c2c(-c3ccc(F)cc3)ncn2C2CCC(O)CC2)n1 (configuration not stated) | Phenotype: Inactive; Curve_Description: None | Phenotype: Inactive; Curve_Description: None
– | – | Nc1nonc1-c1nc2cnccc2n1C1CCCCC1 | Phenotype: Inactive; Curve_Description: None | Phenotype: Inactive; Curve_Description: None
– | – | N#Cc1c(NC(=O)CN2CCOCC2)sc2c1CCCC2.O=C(O)C(=O)O | Phenotype: Inactive; Curve_Description: None | Phenotype: Inactive; Curve_Description: None
– | – | O=C(Nc1n[nH]c2nnc(-c3cccnc3)cc12)C1CC1.O=C(O)C(F)(F)F | Phenotype: Inactive; Curve_Description: None | Phenotype: Inactive; Curve_Description: None
– | – | CN1CCC(C(=O)Nc2n[nH]c3nnc(-c4ccccc4)cc23)CC1.Cl | Phenotype: Inactive; Curve_Description: None | Phenotype: Inactive; Curve_Description: None
– | – | CCN1CCC(C(=O)Nc2n[nH]c3nnc(-c4cccc(F)c4F)cc23)CC1.Cl | Phenotype: Inactive; Curve_Description: None | Phenotype: Inactive; Curve_Description: None
– | – | CN1CCC(C(=O)Nc2n[nH]c3nc(-c4ccc(O)cc4)c(Br)cc23)CC1.O=C(O)/C=C\C(=O)O | Phenotype: Inactive; Curve_Description: None | Phenotype: Inactive; Curve_Description: None
– | – | CCn1c(-c2nonc2N)nc2cncc(C(=O)N3CCNCC3)c21.Cl | Phenotype: Activator; Curve_Description: None | Phenotype: Inactive; Curve_Description: None

AC50 ([2]; read-out: AC50) [µM] | AC50 ([1]; read-out: AC50) [µM] | Compound | AC50 [1] | AC50 [2]
– | – | Cl.c1ccc(-c2nc3n(c2-c2ccc4c(c2)OCO4)CCC3)nc1 | Phenotype: Inactive; Curve_Description: None | Phenotype: Inactive; Curve_Description: None
– | – | Cl.NC(=O)c1ccc(-c2nc(-c3ccccn3)c(-c3ccc4c(c3)OCO4)[nH]2)cc1 | Phenotype: Inactive; Curve_Description: None | Phenotype: Inactive; Curve_Description: None
– | – | CCn1c(-c2nonc2N)nc2cncc(C(=O)N3CC[C@H](N)C3)c21.Cl | Phenotype: Inactive; Curve_Description: None | Phenotype: Inactive; Curve_Description: None
– | – | Cl.Fc1ccc(-c2nc3n(c2-c2ccncc2)CCS3)cc1 | Phenotype: Inactive; Curve_Description: None | Phenotype: Inactive; Curve_Description: None
23.1 | – | Cl.Nc1nccc(-c2c(-c3ccc(F)cc3)ncn2C2CCNCC2)n1 | Phenotype: Inactive; Curve_Description: None; also recorded: Phenotype: Activator; Curve_Description: None | Phenotype: Inactive; Curve_Description: None
– | – | Cl.NCc1ccc(-c2nc(-c3ccc(Cl)c(O)c3)c(-c3ccncc3)[nH]2)cc1 | Phenotype: Inactive; Curve_Description: None | Phenotype: Inactive; Curve_Description: None
– | – | CN(C)CCCn1c(-c2nonc2N)nc2cnccc21 | Phenotype: Inactive; Curve_Description: None | Phenotype: Inactive; Curve_Description: None
– | – | COc1ccc2cc(-c3c(-c4ccncc4)nc(-c4ccc(S(C)(=O)=O)cc4C)n3C)ccc2c1 | Phenotype: Inactive; Curve_Description: None | Phenotype: Inactive; Curve_Description: None
20.6 | – | O=C(Nc1n[nH]c2nc(-c3ccc(O)cc3)c(Br)cc12)C1CC1 | Phenotype: Inactive; Curve_Description: None | –
16.3 | – | O=C(Nc1n[nH]c2cc(-c3cc(F)ccc3F)ccc12)C1CC1 | Phenotype: Inactive; Curve_Description: None | –
– | – | Fc1ccc(-c2c(-c3ccncc3)nc3n2CCS3)cc1 | Phenotype: Inactive; Curve_Description: None | Phenotype: Inactive; Curve_Description: None
32.6 | – | Fc1ccc(-c2ncn(C3CCNCC3)c2-c2ccnc(Oc3ccc4c(c3)OCO4)n2)cc1 | Phenotype: Inactive; Curve_Description: None | –
– | – | Nc1nccc(-c2c(-c3ccc(F)cc3)ncn2CCCN2CCOCC2)n1 | Phenotype: Inactive; Curve_Description: None | Phenotype: Inactive; Curve_Description: None
29.1 | – | NC(=O)c1ccc(Oc2nccc(-c3c(-c4ccc(F)cc4)ncn3C3CCNCC3)n2)cc1 | Phenotype: Inactive; Curve_Description: None | –
– | – | CN1CCC(n2cnc(-c3ccc(F)cc3)c2-c2ccnc(Nc3ccccc3)n2)CC1 | Phenotype: Inactive; Curve_Description: None | Phenotype: Inactive; Curve_Description: None
36.6 | – | CN1CCC(n2cnc(-c3ccc(F)cc3)c2-c2ccnc(NCCO)n2)CC1 | Phenotype: Inactive; Curve_Description: None | –
– | – | CCc1nccc2c1nc(-c1nonc1N)n2CC | Phenotype: Inactive; Curve_Description: None | Phenotype: Inactive; Curve_Description: None
0.919 | – | N#Cc1c(NC(=O)c2ccc(F)cc2)sc2c1CCCC2 | Phenotype: Inactive; Curve_Description: None | –
36.6 | – | COc1ccc2cc(-c3c(-c4ccncc4)nc(-c4ccc([S+](C)[O-])cc4)n3C)ccc2c1 (configuration not stated) | Phenotype: Inactive; Curve_Description: None | –
18.3 | – | O=C(Nc1n[nH]c2cc(-c3ccccc3)ccc12)C1CC1 | Phenotype: Inactive; Curve_Description: None | –
20.6 | – | O=C(Nc1n[nH]c2nc(-c3ccco3)c(Br)cc12)C1CC1 | Phenotype: Inactive; Curve_Description: None | –
2.31 | – | COc1ccc(-c2ccc3c(NC(=O)C4CC4)n[nH]c3n2)cc1 | Phenotype: Inactive; Curve_Description: None | –
16.3 | – | O=C(Nc1n[nH]c2cc(-c3ccc(F)cc3)ccc12)C1CC1 | Phenotype: Inactive; Curve_Description: None | –
– | – | CCc1ccc(Oc2nccc(-c3c(-c4ccc(F)cc4)ncn3C3CCNCC3)n2)cc1 | Phenotype: Inactive; Curve_Description: None | Phenotype: Inactive; Curve_Description: None
– | – | CN1CCC(n2cnc(-c3ccc(F)cc3)c2-c2ccnc(N)n2)CC1 | Phenotype: Inactive; Curve_Description: None | Phenotype: Inactive; Curve_Description: None
41.1 | – | CC1(C)CC(n2cnc(-c3ccc(F)cc3)c2-c2ccnc(N)n2)CC(C)(C)N1 | Phenotype: Inactive; Curve_Description: None | –

Compound | AC50 ([2]; read-out: AC50) [µM] | AC50 ([1]; read-out: AC50) [µM] | AC50 [1] | AC50 [2]
CCN1CCC(CC(=O)Nc2n[nH]c3nnc(-c4cccc(F)c4F)cc23)CC1.O=C(O)C(O)C(O)C(=O)O | 41.1 | – | Phenotype: Inactive; Curve_Description: None | –
